According to patent US8933228B2, “Respiratory formulations and compounds for use therein” (Respivert, Ltd., priority 2010, dated 2015):

Assays:
[1] = molecular target: p38 MAPK alpha (MAPK14) (Homo sapiens (Human), UniProt Q16539); assay: Enzyme inhibition assay (FRET, Z-LYTE), p38 MAPK alpha via MAPKAP-K2 activation; assay type: biochemical; settings: read-out: Enzyme Profile: IC50 Values p38α
How it was run: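 Recombinant p38 MAPKα was preincubated with compound 2 hr at RT. Its activity was measured indirectly through MAPKAP-K2 activation/phosphorylation, read by Z-LYTE FRET after 1 hr protease development. Phosphorylation was taken from the coumarin/fluorescein emission ratio.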

[2] = molecular target: p38 MAPK γ (MAPK12) (Homo sapiens (Human), UniProt P53778); assay: Enzyme inhibition assay (FRET, Z-LYTE), p38 MAPK gamma; assay type: biochemical; settings: read-out: Enzyme Profile: IC50 Values p38γ
How it was run: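 Recombinant phosphorylated human p38γ preincubated with compound 2 hr at RT in HEPES buffer, then reacted 1 hr with 2 μM FRET peptide and 100 μM ATP. Protease development 1 hr; phosphorylation derived from coumarin/fluorescein emission ratio.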

[3] = molecular target: HCK enzyme (Homo sapiens (Human), UniProt P08631); assay: HCK enzyme inhibition assay (FRET, Z'-LYTE); assay type: biochemical; settings: read-out: Enzyme Profile: IC50 Values HCK
[4] = molecular target: cSrc enzyme (Homo sapiens (Human), UniProt P12931); assay: c-SRC enzyme inhibition assay (FRET, Z'-LYTE); assay type: biochemical; settings: read-out: Enzyme Profile: IC50 Values cSrc
[5] = tested on: TNFα release in THP-1 cells; assay: LPS-induced TNFα release in THP-1 cells; assay type: cell-based; settings: Homo sapiens; THP-1 cells, LPS 3 μg/mL, 4 hr; read-out: THP1 (LPS) TNFα IC50
Protocol: The inhibition of TNFα production was calculated at each concentration by comparison with vehicle control.

[6] = tested on: TNFα release in d-U937 cells; assay: LPS-induced TNFα release in d-U937 cells; assay type: cell-based; settings: Homo sapiens, dU937, LPS 0.1 μg/mL, 4 hr, relative to 10 μg/mL BIRB796, read-out: d-U937 (LPS) TNFα REC50
How it was run: (§1)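 U937 cells made macrophage-like by 48–72 h with PMA (100 ng/mL), then stimulated with LPS (E. coli O111:B4) for 4 h. Supernatant TNFα and IL-8 measured by sandwich ELISA; inhibition versus vehicle control at each concentration, REC50 from concentration-response curve.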

[7] = tested on: IL-8 release in d-U937 cells; assay: LPS-induced IL-8 release in d-U937 cells; assay type: cell-based; settings: Homo sapiens, dU937; d-U937 cells, LPS 0.1 μg/mL, 4 hr; read-out: d-U937 (LPS) IL-8 IC50
How it was run: as §1

[8] = tested on: ICAM-1 expression in BEAS2B cells; assay: Poly I:C-induced ICAM-1 induction in BEAS2B cells; assay type: cell-based; settings: Homo sapiens, BEAS-2B; BEAS2B cells, poly I:C 1 μg/mL, 18 hr; read-out: BEAS2B (polyIC) ICAM1 IC50
How it was run: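 Human bronchial epithelial BEAS2B cells pre-incubated 2 hr with test compounds at final concentrations, then transfected with poly I:C (1 μg/mL) using Oligofectamine. Cell-surface ICAM-1 quantified by cell-based ELISA with HRP-conjugated anti-rabbit IgG secondary.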

[9] = tested on: HRV16; assay: Rhinovirus-titre assay; assay type: cell-based, human rhinovirus; settings: HRV16; for inhibition at 0.04 µg/mL: Human rhinovirus sp., cell not marked b, test compounds 0.04 μg/mL per method (footnote b, 0.2 μg/mL), read-out: HRV titre (inhibitory %): % inhibition observed vs. HRV16 infection control
[10] = tested on: Differentiated U937 cells; assay: MTT assay: cell viability; assay type: cell-based, human; settings: 1 μg/ml; for d-U937 MTT Assay 4 h: 5% FCS; for d-U937 MTT Assay 24 h: 10% FCS
How it was run: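 Differentiated U937 cells pre-incubated with compound either 4 hr in 5% FCS or 24 h in 10% FCS, then 1 hr MTT. Formazan dissolved in DMSO, absorbance at 550 nm. Percentage viability loss relative to 0.5% DMSO vehicle; apparent increases appear as negative percentages.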

| SMILES | IC50 [1] [µM] | IC50 [2] [µM] | IC50 [3] [µM] | IC50 [4] [µM] | IC50 [5] [µM] | EC50 [6] [µM] | IC50 [7] [µM] | IC50 [8] [µM] | inhibition at 0.04 µg/mL [9] [%] | NBEC (HRV) HRV titre Relative anti-viral activity ([9]; at 0.04 μg/mL vs. pleconaril at 0.1 μg/mL) | d-U937 MTT Assay 4 h [10] | d-U937 MTT Assay 24 h [10] |
| --- | --- | --- | --- | --- | --- | --- | --- | --- | --- | --- | --- | --- |
| COc1ccc(-n2nc(C(C)(C)C)cc2NC(=O)Nc2ccc(Oc3ccnc4[nH]c(=O)[nH]c34)c3ncccc23)cc1 [Example 14, 1-(3-(tert-Butyl)-1-(4-methoxyphenyl)-1H-pyrazol-5-yl)-3-(8-((2-oxo-2,3-dihydro-1H-imidazo[4,5-b]pyridin-7-yl)oxy)quinolin-5-yl)urea] | 0.005 | 0.18 | < 0.002 | 0.0008 | 0.163 | 0.166 | 0.726 | 0.675 | 8 | 1.5 | − (− and + indicate the result is below and above the no significant effect threshold, respectively (<30% inhibition at a concentration of 1 μg/ml)) | − (− and + indicate the result is below and above the no significant effect threshold, respectively (<30% inhibition at a concentration of 1 μg/ml)) |
| Cc1ccc(-n2nc(C(C)(C)C)cc2NC(=O)Nc2ccc(Oc3ncnc4[nH]c(=O)[nH]c34)c3ccccc23)cc1 [Example 15, 1-(3-(tert-Butyl)-1-(p-tolyl)-1H-pyrazol-5-yl)-3-(4-((8-oxo-8,9-dihydro-7H-purin-6-yl)oxy)naphthalen-1-yl)urea] | 0.03 | 0.539 | 0.036 | 0.035 | 0.126 | 0.033 | 0.164 | > 0.182 | 8 | – | − (− and + indicate the result is below and above the no significant effect threshold, respectively (<30% inhibition at a concentration of 1 μg/ml)) | − (− and + indicate the result is below and above the no significant effect threshold, respectively (<30% inhibition at a concentration of 1 μg/ml)) |
| CC(C)(C)c1cc(NC(=O)Nc2ccc(Oc3ccnc4[nH]c(=O)cnc34)c3ccccc23)n(-c2ccc(O)cc2)n1 [Example 16, 1-(3-(tert-Butyl)-1-(4-hydroxyphenyl)-1H-pyrazol-5-yl)-3-(4-((3-oxo-3,4-dihydropyrido[2,3-b]pyrazin-8-yl)oxy)naphthalen-1-yl)urea] | 0.004 | 0.045 | 0.018 | 0.01 | 0.116 | 0.055 | 0.047 | 0.172 | 8 | – | − (− and + indicate the result is below and above the no significant effect threshold, respectively (<30% inhibition at a concentration of 1 μg/ml)) | − (− and + indicate the result is below and above the no significant effect threshold, respectively (<30% inhibition at a concentration of 1 μg/ml)) |
| CC(C)(C)c1cc(NC(=O)Nc2ccc(Oc3ccnc4[nH]c(=O)cnc34)c3ccccc23)n(-c2ccc(CO)cc2)n1 [Example 17, 1-(3-(tert-Butyl)-1-(4-(hydroxymethyl)phenyl)-1H-pyrazol-5-yl)-3-(4-((3-oxo-3,4-dihydropyrido[2,3-b]pyrazin-8-yl)oxy)naphthalen-1-yl)urea] | 0.007 | 0.318 | 0.024 | 0.011 | 0.014 | 0.012 | 0.024 | 0.014 | 36 | – | − (− and + indicate the result is below and above the no significant effect threshold, respectively (<30% inhibition at a concentration of 1 μg/ml)) | − (− and + indicate the result is below and above the no significant effect threshold, respectively (<30% inhibition at a concentration of 1 μg/ml)) |
| COc1cc(-n2nc(C(C)(C)C)cc2NC(=O)Nc2ccc(Oc3ccnc4[nH]c(=O)cnc34)c3ccccc23)ccc1CO [Example 18, 1-(3-(tert-Butyl)-1-(4-(hydroxymethyl)-3-methoxyphenyl)-1H-pyrazol-5-yl)-3-(4-((3-oxo-3,4-dihydropyrido[2,3-b]pyrazin-8-yl)oxy)naphthalen-1-yl)urea] | 0.005 | 0.024 | 0.005 | 0.006 | 0.017 | 0.012 | 0.0074 | 0.015 | 80 | – | − (− and + indicate the result is below and above the no significant effect threshold, respectively (<30% inhibition at a concentration of 1 μg/ml)) | − (− and + indicate the result is below and above the no significant effect threshold, respectively (<30% inhibition at a concentration of 1 μg/ml)) |
| COc1ccc(-n2nc(C(C)(C)C)cc2NC(=O)Nc2ccc(Oc3ccnc4[nH]c(=O)cnc34)c(Cl)c2Cl)cc1 [Example 19, 1-(3-(tert-Butyl)-1-(4-methoxyphenyl)-1H-pyrazol-5-yl)-3-(2,3-dichloro-4-((3-oxo-3,4-dihydropyrido[2,3-b]pyrazin-8-yl)oxy)phenyl)urea] | 0.002 | 0.035 | 0.004 | 0.007 | 0.0021 | 0.0013 | 0.0016 | 0.0006 | 80 | – | − (− and + indicate the result is below and above the no significant effect threshold, respectively (<30% inhibition at a concentration of 1 μg/ml)) | − (− and + indicate the result is below and above the no significant effect threshold, respectively (<30% inhibition at a concentration of 1 μg/ml)) |
| COc1ccc(-n2nc(C(C)(C)C)cc2NC(=O)Nc2ccc(Oc3ccnc4[nH]c(=O)cnc34)c3ccccc23)cn1 [Example 20] | 0.006 | 0.044 | 0.003 | 0.008 | 0.013 | 0.0034 | 0.016 | 0.021 | 36 | – | − (− and + indicate the result is below and above the no significant effect threshold, respectively (<30% inhibition at a concentration of 1 μg/ml)) | − (− and + indicate the result is below and above the no significant effect threshold, respectively (<30% inhibition at a concentration of 1 μg/ml)) |
| COc1ccc(-n2nc(C(C)(C)C)cc2NC(=O)Nc2ccc(Oc3ncnc4[nH]c(=O)cnc34)c3ccccc23)cc1 [Example 22] | 0.017 | 2.62 | 0.458 | 0.406 | > 1.73 | > 1.73 | > 1.73 | > 0.173 | 8 | – | − (− and + indicate the result is below and above the no significant effect threshold, respectively (<30% inhibition at a concentration of 1 μg/ml)) | − (− and + indicate the result is below and above the no significant effect threshold, respectively (<30% inhibition at a concentration of 1 μg/ml)) |
| COc1ccc(-n2nc(C(C)(C)C)cc2NC(=O)Nc2ccc(Oc3ccnc4[nH]c(=O)n(C)c34)c3ccccc23)cn1 [Example 24, 1-(3-(tert-butyl)-1-(6-methoxypyridin-3-yl)-1H-pyrazol-5-yl)-3-(4-((1-methyl-2-oxo-2,3-dihydro-1H-imidazo[4,5-b]pyridin-7-yl)oxy)naphthalen-1-yl)urea] | 0.007 | 0.126 | 0.005 | 0.016 | 0.0044 | 0.0013 | 0.011 | 0.012 | 91 | – | − (− and + indicate the result is below and above the no significant effect threshold, respectively (<30% inhibition at a concentration of 1 μg/ml)) | − (− and + indicate the result is below and above the no significant effect threshold, respectively (<30% inhibition at a concentration of 1 μg/ml)) |
